According to ChEMBL document CHEMBL1140026 (Bioorg Med Chem Lett, 2007):
pIC50: −log10 of the molar value.

Each compound was assayed against cGMP-specific 3',5'-cyclic phosphodiesterase (Homo sapiens, UniProt O76074) (assay: Inhibition of PDE5).
Work on `CCCOc1ccc(S(=O)(=O)N2CCC(CCC(=O)O)CC2)cc1-c1nc2c(CCC)nn(C)c2c(=O)[nH]1` yielded a pIC50 of 10.30.
`CCCc1nn(C)c2c(=O)[nH]c(-c3cc(S(=O)(=O)N4CCN(C)CC4)cc4c3OCC4)nc12` showed a pIC50 of 6.62.
`CCCc1nn(C)c2c(=O)[nH]c(-c3cc(S(=O)(=O)N4CCN(C)CC4)cc4c3OCCO4)nc12` gave a pIC50 of 8.10.
For `CCCc1nn(C)c2c(=O)[nH]c(-c3cc(S(=O)(=O)N4CCN(CCO)CC4)cc4c3OCC4)nc12`, the pIC50 was 6.69.
`CCCc1nn(C)c2c(=O)[nH]c(-c3cc(S(=O)(=O)N4CCN(CCO)CC4)cc4c3OCO4)nc12` was tested, and the pIC50 was 6.48.
`CCCc1nn(C)c2c(=O)[nH]c(-c3cc(S(=O)(=O)N4CCN(CCO)CC4)cc4c3OCCO4)nc12` showed a pIC50 of 8.20.
Work on `CCCc1nn(C)c2c(=O)[nH]c(-c3cc(S(=O)(=O)N4CCC(C(=O)O)CC4)ccc3OCC)nc12` yielded a pIC50 of 9.29.
In the case of `CCCc1nn(C)c2c(=O)[nH]c(-c3cc(S(=O)(=O)N4CCC(CC(=O)O)CC4)ccc3OCC)nc12`, the pIC50 was 9.48.
`CCCOc1ccc(NC(=O)CCC)cc1-c1nc2c(CCC)nn(C)c2c(=O)[nH]1` was tested, and the pIC50 was 9.57.
Work on `CCCc1nn(C)c2c(=O)[nH]c(-c3cc(S(=O)(=O)N4CCN(CCC(=O)O)CC4)ccc3OCC)nc12` yielded a pIC50 of 9.39.
`CCCOc1ccc(NC(=O)C(C)C)cc1-c1nc2c(CCC)nn(C)c2c(=O)[nH]1` showed a pIC50 of 9.46.
Work on `CCCOc1ccc(S(=O)(=O)N2CCC(CC(=O)O)CC2)cc1-c1nc2c(CCC)nn(C)c2c(=O)[nH]1` yielded a pIC50 of 9.96.
`CCCOc1ccc(NC(C)=O)cc1-c1nc2c(CCC)nn(C)c2c(=O)[nH]1` was tested, and the pIC50 was 9.09.
With `CCCc1nn(C)c2c(=O)[nH]c(-c3cc(S(=O)(=O)N4CCC(CCCC(=O)O)CC4)ccc3OCC)nc12` the pIC50 was 9.66.
In the case of `CCCc1nn(C)c2c(=O)[nH]c(-c3cc(S(=O)(=O)N4CCC(CCC(=O)O)CC4)ccc3OCC)nc12`, the pIC50 was 9.82.
For `CCCOc1ccc(NC(=O)CC)cc1-c1nc2c(CCC)nn(C)c2c(=O)[nH]1`, the pIC50 was 9.42.
For `CCCOc1ccc(S(=O)(=O)N2CCC(C(=O)O)CC2)cc1-c1nc2c(CCC)nn(C)c2c(=O)[nH]1`, the pIC50 was 9.82.
`CCCOc1ccc(S(=O)(=O)N2CCC(CCCC(=O)O)CC2)cc1-c1nc2c(CCC)nn(C)c2c(=O)[nH]1` showed a pIC50 of 9.30.
`CCCOc1ccc(NC(=O)C2CCCCC2)cc1-c1nc2c(CCC)nn(C)c2c(=O)[nH]1` gave a pIC50 of 9.38.
Compound `CCCc1nn(C)c2c(=O)[nH]c(-c3cc(S(=O)(=O)N4CCN(CCO)CC4)cc4c3OCCC4)nc12` has a pIC50 of 7.90.
